US5616556A, “Method of treating rheumatoid arthritis and osteoarthrosis using tetrahydro WS9326A” (Fujisawa Pharmaceutical Co., Ltd., priority 1990, dated 1997)
Starred links: 1 amine or outer side, 2 acyl side, 3 side chain; linkers in the order of their positions; H or OH if unused. Positions of bridges follow the written chain, without caps; N, C: chain ends. Non-standard residues stand in square brackets, D forms with d. Residues, ends and D or L forms follow the SMILES beside them. *: point of attachment. X2 = CN(/C(=C/c1ccc(O)cc1)C(=O)[*:2])[*:1]; aThr = C[C@H](O)[C@H](N)C(=O)O; X1 = CCCCCc1ccccc1CCC(=O)*

Assays:
[1] = test system: rabbits; details: rabbit, in vivo, 8 mg/kg
Procedure: (§1) An injectable suspension containing the test compound and other ingredients mentioned below was administered into the knee joint of rabbits (6 males and 6 females) and dogs (3 males and 3 females) twice a week for 4 weeks. The dose was 8 mg/kg for rabbits and 12 mg/kg for dogs.

[2] = test system: dogs; details: dog, in vivo, 12 mg/kg
Procedure: as §1

CCCCCc1ccccc1CCC(=O)N[C@@H]1C(=O)N(C)/C(=C/c2ccc(O)cc2)C(=O)N[C@@H](CC(C)C)C(=O)N[C@H](Cc2ccccc2)C(=O)N[C@@H]([C@H](C)O)C(=O)N[C@@H](CC(N)=O)C(=O)N[C@@H](CO)C(=O)O[C@@H]1C [tetrahydro-WS9326A] (X1-T[X2]L[dF][aThr]NS; ester 1-C)
death [1]: caused death in neither rabbits nor dogs | death [2]: caused death in neither rabbits nor dogs
